Earlier results on four molecules are cited in patent US20040167185A1, “Methods of treating conditions associated with an Edg-3 receptor” (priority 2003, published 2004).

Counter-ions that a name gives are not always drawn.

In data set [1] the target is Serotonin 5-HT1, non-selective. As to conditions: Kd of the radioligand; Wistar rat cerebral cortex; historical value.
Another data set addresses Adrenergic β. The settings on record: Kd of the radioligand; Wistar rat brain; historical value.
The target in another data set is T1, Angiotensin AT2 (Homo sapiens, UniProt P50052).
T1 construct: expressed in transfected cells; host or cells: Hela cells
T1 sequence (P50052 1-363): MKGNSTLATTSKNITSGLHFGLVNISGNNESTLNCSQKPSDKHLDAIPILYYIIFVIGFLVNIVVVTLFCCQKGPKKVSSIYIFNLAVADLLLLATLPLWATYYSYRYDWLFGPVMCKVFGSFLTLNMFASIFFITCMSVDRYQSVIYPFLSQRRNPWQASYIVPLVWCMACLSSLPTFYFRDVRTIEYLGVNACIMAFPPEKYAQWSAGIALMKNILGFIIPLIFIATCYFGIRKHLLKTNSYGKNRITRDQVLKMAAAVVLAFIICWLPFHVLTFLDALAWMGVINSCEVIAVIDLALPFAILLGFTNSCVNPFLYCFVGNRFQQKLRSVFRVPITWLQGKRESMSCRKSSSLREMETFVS
The settings on record: Kd of the radioligand; Human recombinant Hela cells; historical value.

The target in data set [2] is Adrenergic α1, non-selective.

Regarding `NCCc1c[nH]c2ccc(O)cc12` [^3H Serotonin (5-HT) Trifluoroacetate, Serotonin (5-HT) Trifluoroacetate], in data set [1], the Kd was 0.61 nM.

On to `CCCc1ccccc1OCC(O)CNC(C)C` (stereo not shown) [^3H Dihydroaplenolol, Dihydroaplenolol], for which the Kd on Adrenergic β was 0.5 nM.

CGP-42112A [^125I CGP-42112A]: on Angiotensin AT2, the Kd is 0.012 nM.

Regarding `COc1cc2nc(N3CCN(C(=O)c4ccco4)CC3)nc(N)c2cc1OC` [^3H Prazosin, Prazosin], the Kd in data set [2] was 0.29 nM.
